Experimental data reported in patent US8946243B2, “Compounds and methods for the treatment of viral infection” (The United States of America, as represented by the …, priority 2008, dated 2015).
Read-outs that look alike come from different tables or passages of the source.

How the values were obtained:
HIV-1(IIIB) = assay: Anti-HIV activity in CEM cell cultures: prevention of giant cell (syncytium) formation, HIV-1(IIIB); format: cell-based; conditions: concentration preventing syncytium formation by 50%, 4-5 days
Method: (§1) Human T-lymphocyte MT-4 or CEM cells were obtained from the American Type Culture Collection (Manassas, Va.) and cultivated in RPMI 1640 medium supplemented with 10% fetal bovine serum 2 mM L-glutamine and 0.075 M NaHCO3.
(§2) HIV-1(IIIB) was provided by Dr. R. C. Gallo and Dr. M. Popovic (at that time at the NCI, National Institutes of Health, Bethesda). A closely related HIV-1 variant (LAI.04) was obtained from the NIH AIDS Reagent Program.
(§3) Briefly, CEM cells (4.5×10^5 cells per ml) were suspended in fresh culture medium and infected with HIV-1 at 100 CCID50 (cell culture infective dose-50) per ml of cell suspension. Then 100 μl of the infected cell suspension were transferred to microplate wells, mixed with 100 μl of the appropriate dilutions of the test compounds, and further incubated at 37° C. After 4-5 days, giant cell formation was recorded microscopically in the CEM cell cultures. […] MT4 cells (1×10^4 cells per ml) were suspended in fresh culture medium and infected with 10 uL of HIV-1LAI.04 viral stock at 260 CCID50 (cell culture infective dose-50) per ml of cell suspension. Then infected cell suspensions were transferred to microplate wells, mixed with 1 mL of the appropriate dilutions of the test compounds, and further incubated at 37° C. After 7 days, p24 production was measured in the MT4 cell cultures supernatant.

HIV-1 X4 LAI.04 = assay: HIV-1 replication in ex vivo human tonsillar tissue culture: p24gag in culture medium; format: cell-based; conditions: for EC50 / EC90: Human immunodeficiency virus 1; for EC50 / EC90 / EC75: ex vivo human tonsillar tissue, X4 LAI.04, p24gag
Method: Tonsillar tissues from routine surgery were obtained from the Children's National Medical Center, Washington D.C. Tissues were dissected into 2-mm^3 blocks and placed onto collagen sponge gels at the air-liquid interface. Tissue blocks were cultured in RPMI 1640 medium containing 15% heat-inactivated fetal calf serum, nonessential amino acids (1 mM), sodium pyruvate (1 mM), amphotericin B (2.5 μg/mL) and gentamicin (50 μg/mL). The culture medium was changed every 3 days and prodrugs were replenished. Blocks of human lymphoid tonsillar tissues were inoculated ex vivo with X4LAI.04 and treated with increasing concentration of each prodrug (0,1; 0.5; 1; 5 and 10 μM). HIV-1 replication was monitored by measuring p24gag accumulated in culture media over 3 day periods. For each donor, HIV-1 replication in 9 treated blocks was compared with that in 9 untreated blocks from the same donor.

[1] = Cytostatic activity in CEM cell cultures; format: cell-based; conditions: human, CEM T-lymphocyte cells
Method: as §1

HIV-1 LAI.04 = assay: Anti-HIV activity in MT4 cell cultures: p24 production; format: cell-based; conditions: for inhibition of HIV-1 (in words): MT-4 cell line, concentration of 5 μM
Method: as §1, §2
as §3, with “After 7 days, p24 production was measured in the MT4 cell cultures supernatant.” left out

HIV-2(ROD) = assay: Anti-HIV activity in CEM cell cultures: prevention of giant cell (syncytium) formation, HIV-2(ROD); format: cell-based; conditions: Human immunodeficiency virus 2, CCRF-CEM, read-out: EC50 HIV-2(ROD)
HIV-1 RT = HIV-1 RT (Human immunodeficiency virus type 1 group M subtype B, UniProt P03366); assay: Inhibition of HIV-1 RT; format: biochemical
[2] = Human immunodeficiency virus 1, IIIB, CCRF-CEM, read-out: EC50 HIV-1(IIIB), CEM cell cultures
[3] = Human immunodeficiency virus 1, MT4
[4] = CEM cell cultures, 50% effective concentration
[5] = MT4 cell cultures, HIV-1 LAI.04, 50% suppression of p24 production, read-out: EC50

SMILES	EC50 (HIV-1(IIIB); [2])	EC50 (HIV-1 X4 LAI.04)	EC90 (HIV-1 X4 LAI.04)	EC75 (HIV-1 X4 LAI.04)	CC50 [1]	EC50 (HIV-1 LAI.04; [3])	EC50 (HIV-2(ROD))	also measured
COC(=O)[C@H](C)NP(=O)(OCCOCn1cnc2c(=O)[nH]c(N)nc21)Oc1cccc2ccccc12 (stereo partly drawn) [Cf 2649, acyclovir-[1-naphthyl(methoxy-L-alaninyl)]phosphate]	9.7 µM	< 0.1 µM	0.1 µM	<0.1 µM	57 µM	3 µM	9.3 µM	suppression of HIV-1 replication, time course (FIG. 1, in words) (HIV-1 X4 LAI.04; human tonsillar tissue, 27 blocks, LAI.04, drug replenished every three days, p24 ELISA): efficient suppression of HIV replication; inhibition at 5 µM (HIV-1 LAI.04; Human immunodeficiency virus 1, MT4, read-out: inhibition of replication of HIV-1): 99%; dose-dependency of HIV suppression (FIG. 2, in words) (HIV-1 LAI.04; MT4 cells, LAI.04, day 3 post-infection, p24 ELISA): suppression of HIV replication by the drug in dose-dependent manner
Nc1nc(O)c2ncn(COC(CO)CO)c2n1 [GCV, Ganciclovir, reference compound]	–	–	–	–	> 250 µM	–	–	EC50 (HIV-1(IIIB); Human immunodeficiency virus 1, IIIB, CCRF-CEM, CEM cell cultures, read-out: EC50 HIV-1(IIIB)): > 250 µM; EC50 (HIV-2(ROD); [4]): > 250 µM
C[C@H](NP(=O)(OCCOCn1cnc2c(=O)[nH]c(N)nc21)Oc1ccccc1)C(=O)OCc1ccccc1 (stereo partly drawn) [Cf 2648, acyclovir-[1-phenyl-(benzoxy-L-alaninyl)]phosphate]	3.2 µM	< 0.1 µM	0.55 µM	<0.1 µM	33 µM	8 µM	8.8 µM	–
Nc1nc2c(ncn2COCCO)c(=O)[nH]1 [ACV, Acyclovir, reference compound]	–	–	–	–	> 250 µM	–	–	inhibition of HIV-1 (in words) (HIV-1 LAI.04): inefficient; effect on replication of HIV-1 (in words) (HIV-1 LAI.04; MT-4 cells, at low concentrations): does not affect HIV-1 replication at all; EC50 (HIV-2(ROD); [4]): > 250 µM
Nc1nc2c(ncn2COCCOP(=O)(O)O)c(=O)[nH]1 [ACV monophosphate, reference compound]	–	–	–	–	–	–	–	EC50 (HIV-1 LAI.04; [5]): 100 µM; inhibition of HIV-1 (in words) (HIV-1 LAI.04): inefficient
COC(=O)[C@H](C)NP(=O)(OCCOCn1cnc2c(=O)[nH]c(N)nc21)Oc1ccccc1 (stereo partly drawn) [Cf 1811, acyclovir-[1-phenyl-(methoxy-L-alaninyl)]phosphate]	16 µM	< 0.1 µM	0.5 µM	0.1 µM	67 µM	15 µM	26 µM	–
Nc1nc2c(ncn2COCCOP(=O)(N[C@@H](Cc2ccccc2)C(=O)OCc2ccccc2)Oc2ccccc2)c(=O)[nH]1 (stereo partly drawn) [Cf 2650, acyclovir-[1-phenyl-(benzoxy-L-phenylalaninyl)]phosphate]	24 µM	< 0.1 µM	3 µM	1.5 µM	42 µM	16 µM	21 µM	–
Nc1nc2c(ncn2COCCOP(=O)(O)OP(=O)(O)OP(=O)(O)O)c(=O)[nH]1 [ACV triphosphate, reference compound]	–	–	–	–	–	–	–	EC50 (HIV-1 LAI.04; [5]): 50 µM; inhibition of HIV-1 RT (in words) (HIV-1 RT): potent inhibitor
C[C@H](NP(=O)(OCCOCn1cnc2c(=O)[nH]c(N)nc21)Oc1cccc2ccccc12)C(=O)OCc1ccccc1 (stereo partly drawn) [Cf 2574, acyclovir-[1-naphthyl(benzoxy-L-alaninyl)]phosphate]	17.5 µM	< 0.1 µM	0.9 µM	0.62 µM	17 µM	0.8 µM	7.3 µM	–
CCCOC(=O)[C@H](C)NP(=O)(OCCOCn1cnc2c(=O)[nH]c(N)nc21)Oc1cccc2ccccc12 (stereo partly drawn) [Cf 2629, acyclovir-[1-naphthyl(n-propoxy-L-alaninyl)]phosphate]	3.2 µM	< 0.1 µM	1.5 µM	0.4 µM	22 µM	10 µM	7.4 µM	EC50 (HIV-1(IIIB); read-out: EC50 HIV-1(IIIB), CEM cell cultures): 3.4 µM
